The values below are quoted from earlier work in patent US20080146534A1, “PHARMACEUTICAL COMPOSITION FOR REDUCING THE RISKS ASSOCIATED WITH CARDIOVASCULAR AND CEREBROVASCULAR DISEASES” (priority 2006, published 2008).

The conditions of this data set: at clinical doses.

Regarding `O=C1CCc2cc(OCCCCc3nnnn3C3CCCCC3)ccc2N1` [Cilostazol, 6-[4-(1-cyclohexyl-1H-tetrazol-5-yl)butoxy]-3,4-dihydro-2(1H)-quinolinon], the “increase in heart rate” value is listed as “about 7 beats/minute”. Moreover, where the note is “small increase from 1/hour”, the “ventricular premature beat (VPB) rate” value was 4 h⁻¹.
